# From US20250051316A1, “2-(ARYL-2-YL) […] […], PREPARATION METHOD THEREFOR AND APPLICATION THEREOF” (SHANGHAI HANSOH BIOMEDICAL CO., LTD., priority 2021, published 2025)
# Target: T1, ADRA1A receptor (Homo sapiens, UniProt P35348)
# T1 construct: expressed in transfected cells
# T1 sequence (P35348 1-466): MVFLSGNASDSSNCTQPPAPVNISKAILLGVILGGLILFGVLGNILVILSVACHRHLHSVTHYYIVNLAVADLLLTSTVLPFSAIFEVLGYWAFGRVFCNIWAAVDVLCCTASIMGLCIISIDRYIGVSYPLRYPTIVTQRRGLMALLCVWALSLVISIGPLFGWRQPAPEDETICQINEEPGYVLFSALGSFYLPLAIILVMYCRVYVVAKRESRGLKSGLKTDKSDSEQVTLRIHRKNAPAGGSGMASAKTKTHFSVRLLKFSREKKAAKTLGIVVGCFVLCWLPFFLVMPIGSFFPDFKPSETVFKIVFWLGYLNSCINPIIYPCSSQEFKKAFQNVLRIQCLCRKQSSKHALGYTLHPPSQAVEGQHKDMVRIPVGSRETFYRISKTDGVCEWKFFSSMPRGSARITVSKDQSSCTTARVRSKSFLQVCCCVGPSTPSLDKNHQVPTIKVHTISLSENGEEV
# Assay: Effect on calcium current in cells which stably express ADRA1A receptor
# Assay type: cell-based
# Protocol: Test Example 4. Determination of the Effect of the Present Compounds on Calcium Current in the Cells which Stably Express ADRA1A Receptor
# Determination of the activation effect of the compounds on ADRA1A receptors.
# 1) Flp In-CHO-ADRA1A Stable Pool cell lines were cultured in complete medium at 37° C., 5% CO2 to 70%-90% fusion.
# 2) Complete culture medium: Ham's F12K+10% FBS+1*Penicillin−Streptomycin+600 μg/mL Hygromycin B; Cell inoculation medium: Ham's F12K++10% FBS; Experimental buffer: 1×HBSS+20 mM HEPES
# 3) After TrypLE digestion, the cells were re-suspended in the inoculation medium and inoculated in 384 well cell culture plate (Corning, 3764). 7000 cells were inoculated into each well and incubated overnight at 37° C. and 5% CO2.
# 4) 20× Component A was freeze-thaw to room temperature, and then diluted with experimental buffer to 2× working concentration including 5 mM Probenecid, which was then placed at room temperature for use.
# 5) The cell culture plate was taken out, and let to stand at room temperature for 10 minutes. The plate was subject to inverted centrifugation at 200 g, and RT centrifugation for 1 second, and then 20 μL Assay buffer was quickly added to the cell culture plate. Then 20 μL 2× Component A containing 5 mM Probenecid was added to each experimental well, which was centrifuged by RT at 200 g for 3-5 seconds, and incubated at 37° C. for 2 hours.
# 6) The working solution (5×) for the compound to be tested was prepared and placed and at room temperature for use.
# 7) The cell culture plate was taken out and let to stand at room temperature for 10 minutes.
# 8) 10 μL diluteSd compound working solution in step 6) was added to each the experimental well using FLIPR Tetra and data were collected.
# [formula] • 5) EC50 of the compounds was calculated by GraphPad nonlinear fitting formula:
# [formula] • X: Log value of the compound concentration; Y: Activation %
row,SMILES,EC50 [nM]
1,"[2H]C1([2H])COC(c2cccc(C)n2)CN1 (single isomer, unassigned) [Example 10-2, 2-(6-Methylpyridin-2-yl)morpholin-5,5-d2]",1170
2,"[2H]C1([2H])CO[C@@H](c2ccc(F)cn2)CN1 (single isomer, unassigned) [Example 17-2, 2-(5-fluoropyridin-2-yl)morpholin-5,5-d2]",3170
3,"[2H]C1([2H])CO[C@H](c2ccc(F)cc2)CN1 (single isomer, unassigned) [Example 33-1, 2-(4-Fluorophenyl)morpholin-5,5-d2]",1410
